According to publication PMC13233288, “Spider venom peptides Ht1a and Gg1a are toxic to honeybee parasite Varroa destructor by topical application” (npj Drug Discovery, 2026):
No end group written: not given here.

Experiments:
VdNaV = test: Two-electrode voltage clamp, VdNaV expressed in Xenopus laevis oocytes; format: biochemical, V. destructor; conditions: for varroa vs honeybee NaV channel potency: VdNaV compared with AmNaV, 500 nM
Description: (§1) To examine the activity of sHt1a against target and off-target arthropod voltage-gated sodium (NaV) channels, we used electrophysiological recordings of V. destructor (Vd) or A. mellifera (Am) NaV channels expressed in Xenopus laevis oocytes. The cDNA sequences of the VdNaV (in pGH19; kindly gifted by K. Dong[31]) and AmNaV channel (in pcDNA3.1; Genscript, USA) were confirmed by automated Sanger sequencing (Eurofins Genomics, Germany). RNA was synthesised using T7 polymerase (mMessage mMachine kit, Invitrogen, USA) after linearising the cDNA with an appropriate restriction enzyme (New England Biolabs, USA). NaV channel RNA was microinjected into defolliculated X. laevis oocytes (Nasco®, USA) which were then incubated for 2–3 days at 17 °C in Barth’s medium (in millimolar (mM): 96 NaCl, 2 KCl, 5 HEPES, 1 MgCl2, and 1.8 CaCl2 supplemented with 50 µg/mL gentamycin, pH 7.4 adjusted with NaOH (Sigma, USA)). The use of X. laevis complied with national and Flemish guidelines adhered to by the Ghent University Animal Care and Use Committee. Electrophysiological characteristics were studied using the two-electrode voltage-clamp technique (OC-725C; Warner Instruments, USA) with a 150-µL recording chamber as previously described. All data were filtered at 4 kHz (tunable active filter model 900, Frequency Devices Inc., USA) and digitised at 20 kHz using pClamp 10 software (Molecular Devices, USA). The external recording solution used was ND-100 (in mM: 100 NaCl, 5 HEPES, 1 MgCl2, and 1.8 CaCl2, pH 7.6 adjusted with NaOH; chemicals from Sigma, USA). Microelectrode (Narishige® PC-10 vertical puller) resistances were 0.5–1.0 MΩ when backfilled with 3 M KCl. All experiments were performed at room temperature (~22 °C).
(§2) For electrophysiological experiments, sHt1a dissolved at 50 µM in ND100 was added to the recording chamber containing ND100 to a final concentration of 500 nM. After current stabilisation, normalized conductance-voltage (G-V) and channel availability relationships were obtained by measuring steady-state currents upon stepwise depolarisation for 50 ms from a holding potential of –90 mV in 5 mV increments, followed by a 50 ms pulse at –20 mV. The data were fitted with a single Boltzmann function according to I/Imax (or G/Gmax) = [1+exp(-zF(V-V1/2)/RT)]^−1, where I/Imax is the normalised current amplitude, z is the equivalent charge, V1/2 is the half-activation voltage, F is Faraday’s constant, R is the gas constant, and T is the temperature in Kelvin. Off-line data analysis was performed using Clampfit 10 (Molecular Devices, USA), Excel (Microsoft Office) and Prism 10 (GraphPad). Tests for statistical differences included a student’s t-test for V1/2 values and a Kruskal–Wallis test for current inhibition, with p < 0.05 considered to be significant.

AmNaV = test: Two-electrode voltage clamp, AmNaV expressed in Xenopus laevis oocytes; format: biochemical, A. mellifera; conditions: 500 nM sHt1a
Description: as §1, §2

[1] = VdNav, 500 nM sHt1a, mean ± SEM, n = 5 oocytes
[2] = AmNav, mean ± SEM, n = 6 oocytes

KYCAPRKAVCNTPADCCDKSSRCAYPNYGLGYYLDSEFFGKRKICSWRL (also: bicyclic or more (positions not given here)) [Ht1a, μ-gradutoxin-Ht1a]
reduction in peak VdNaV current (VdNaV; 500 nM sHt1a, ND-100 pH 7.6, ~22 °C, p = 0.0212 (Kruskal–Wallis)): 25.3 ± 7.8%
varroa vs honeybee NaV channel potency (VdNaV): equal potency
varroa vs honeybee NaV channel potency (VdNaV; listed as sHt1a): equally active
change in half-maximal activation or inactivation values (VdNaV; VdNaV, 500 nM sHt1a, vs before treatment): without a significant change
Activation Hill slope (VdNaV; [1]): 3.44 ± 0.55
Activation V1/2 (VdNaV; [1]): –17.7 ± 0.7 mV
Steady state inactivation Hill slope (VdNaV; [1]): –4.90 ± 1.29
Steady state inactivation V1/2 (VdNaV; [1]): –40.8 ± 0.5 mV
potency relative to other insect NaV channel targeting spider toxins (VdNaV; authors' comparison of 500 nM sHt1a data (VdNaV, AmNaV) with literature IC50/EC50): less potent than Tx4(6-1) (IC50 = 25 nM[33]) or Dc1a (EC50 = 65 nM[34]), but similarly potent to Aps III (IC50 = 540 nM[35]) and Jingzhaotoxin-I
reduction in peak AmNaV current (AmNaV; ND-100 pH 7.6, ~22 °C, p = 0.0095 (Kruskal–Wallis)): 24.7 ± 7.2%
change in half-maximal activation or inactivation values (AmNaV; AmNaV, vs before treatment): without a significant change
Activation Hill slope (AmNaV; [2]): 3.62 ± 0.61
Activation V1/2 (AmNaV; [2]): –27.6 ± 1.3 mV
Steady state inactivation Hill slope (AmNaV; [2]): –5.12 ± 1.44
Steady state inactivation V1/2 (AmNaV; [2]): –48.2 ± 1.0 mV
